Assay results: ChEMBL document CHEMBL3046897, “Synthesis of 3-{4-[4-dimethylamino-6-(4-methyl-2-oxo-2H-chromen-7-yloxy)-[1,3,5]triazin-2-ylamino]-phenyl}-2-phenyl-5-(4-pyridin-2-yl-piperazin-1-ylmethyl)-thiazolidin-4-one and their biological evaluation” (2012)
Converted amounts (≈) assume the structure as drawn.

Columns and labels:
Assay type in all cases: functional
Shigella flexneri [1] = experiment: Antibacterial activity against Shigella flexneri after 24 hr by agar streak dilution method
Proteus vulgaris [2] = experiment: Antibacterial activity against Proteus vulgaris after 24 hr by agar streak dilution method
Salmonella typhi [3] = experiment: Antibacterial activity against Salmonella enterica subsp. enterica serovar Typhi after 24 hr by agar streak dilution method
Klebsiella pneumoniae [4] = experiment: Antibacterial activity against Klebsiella pneumoniae after 24 hr by agar streak dilution method
Candida albicans [5] = experiment: Antifungal activity against Candida albicans at 100 ug/disk after 48 hr by paper disk diffusion method; conditions: read-out: IZ
Aspergillus clavatus [6] = experiment: Antifungal activity against Aspergillus clavatus at 100 ug/disc after 48 hr by paper disk diffusion method; conditions: read-out: IZ
Aspergillus fumigatus [7] = experiment: Antifungal activity against Aspergillus fumigatus at 100 ug/disc after 48 hr by paper disk diffusion method; conditions: read-out: IZ
Aspergillus niger [8] = experiment: Antifungal activity against Aspergillus niger at 100 ug/disk after 48 hr by paper disk diffusion method; conditions: read-out: IZ
Candida albicans [9] = experiment: Antifungal activity against Candida albicans after 48 hr by agar streak dilution method
Aspergillus clavatus [10] = experiment: Antifungal activity against Aspergillus clavatus after 48 hr by agar streak dilution method
Aspergillus niger [11] = experiment: Antifungal activity against Aspergillus niger after 48 hr by agar streak dilution method
Pseudomonas aeruginosa [12] = experiment: Antibacterial activity against Pseudomonas aeruginosa after 24 hr by agar streak dilution method
Escherichia coli [13] = experiment: Antibacterial activity against Escherichia coli after 24 hr by agar streak dilution method
Shigella flexneri [14] = experiment: Antibacterial activity against Shigella flexneri at 100 ug/disc after 24 hr by paper disk diffusion method; conditions: read-out: IZ
Proteus vulgaris [15] = experiment: Antibacterial activity against Proteus vulgaris at 100 ug/disk after 24 hr by paper disk diffusion method; conditions: read-out: IZ
Salmonella typhi [16] = experiment: Antibacterial activity against Salmonella enterica subsp. enterica serovar Typhi at 100 ug/disk after 24 hr by paper disk diffusion method; conditions: read-out: IZ
Klebsiella pneumoniae [17] = experiment: Antibacterial activity against Klebsiella pneumoniae at 100 ug/disk after 24 hr by paper disk diffusion method; conditions: read-out: IZ
Pseudomonas aeruginosa [18] = experiment: Antibacterial activity against Pseudomonas aeruginosa at 100 ug/disk after 24 hr by paper disk diffusion method; conditions: read-out: IZ
Escherichia coli [19] = experiment: Antibacterial activity against Escherichia coli at 100 ug/disk after 24 hr by paper disk diffusion method; conditions: read-out: IZ
Bacillus subtilis [20] = experiment: Antibacterial activity against Bacillus subtilis after 24 hr by agar streak dilution method
Staphylococcus aureus [21] = experiment: Antibacterial activity against Staphylococcus aureus after 24 hr by agar streak dilution method
Bacillus subtilis [22] = experiment: Antibacterial activity against Bacillus subtilis at 100 ug/disk after 24 hr by paper disk diffusion method; conditions: read-out: IZ
Staphylococcus aureus [23] = experiment: Antibacterial activity against Staphylococcus aureus at 100 ug/disc after 24 hr by paper disk diffusion method; conditions: read-out: IZ
Aspergillus fumigatus [24] = experiment: Antifungal activity against Aspergillus fumigatus after 48 hr by agar streak dilution method

| Structure (SMILES) | MIC (Shigella flexneri [1]) [µg/mL] | MIC (Proteus vulgaris [2]) [µg/mL] | MIC (Salmonella typhi [3]) [µg/mL] | MIC (Klebsiella pneumoniae [4]) [µg/mL] | zone of inhibition at 100 µg/disc (Candida albicans [5]) [mm] | zone of inhibition at 100 µg/disc (Aspergillus clavatus [6]) [mm] | zone of inhibition at 100 µg/disc (Aspergillus fumigatus [7]) [mm] | zone of inhibition at 100 µg/disc (Aspergillus niger [8]) [mm] | MIC (Candida albicans [9]) [µg/mL] | MIC (Aspergillus clavatus [10]) [µg/mL] | MIC (Aspergillus niger [11]) [µg/mL] | MIC (Pseudomonas aeruginosa [12]) [µg/mL] | MIC (Escherichia coli [13]) [µg/mL] | zone of inhibition at 100 µg/disc (Shigella flexneri [14]) [mm] | zone of inhibition at 100 µg/disc (Proteus vulgaris [15]) [mm] | zone of inhibition at 100 µg/disc (Salmonella typhi [16]) [mm] | zone of inhibition at 100 µg/disc (Klebsiella pneumoniae [17]) [mm] | zone of inhibition at 100 µg/disc (Pseudomonas aeruginosa [18]) [mm] | zone of inhibition at 100 µg/disc (Escherichia coli [19]) [mm] | MIC (Bacillus subtilis [20]) [µg/mL] | further results |
| --- | --- | --- | --- | --- | --- | --- | --- | --- | --- | --- | --- | --- | --- | --- | --- | --- | --- | --- | --- | --- | --- |
| Cc1cc(=O)oc2cc(Oc3nc(Nc4ccc(N5C(=O)CSC5c5cccc(F)c5)cc4)nc(N(C)C)n3)ccc12 (stereo not given) | 25 (≈ 42.8 µM) | 50 (≈ 85.5 µM) | 25 (≈ 42.8 µM) | 50 (≈ 85.5 µM) | 18 | 21 | 17 | 20 | 50 (≈ 85.5 µM) | 25 (≈ 42.8 µM) | 25 (≈ 42.8 µM) | 50 (≈ 85.5 µM) | 25 (≈ 42.8 µM) | 22 | 17 | 20 | 18 | 19 | 23 | 50 (≈ 85.5 µM) | MIC (Staphylococcus aureus [21]): 50 µg/mL (≈ 85.5 µM); zone of inhibition at 100 µg/disc (Bacillus subtilis [22]): 19 mm; zone of inhibition at 100 µg/disc (Staphylococcus aureus [23]): 17 mm; MIC (Aspergillus fumigatus [24]): 50 µg/mL (≈ 85.5 µM) |
| Cc1cc(=O)oc2cc(Oc3nc(Nc4ccc(N5C(=O)CSC5c5ccc(O)cc5)cc4)nc(N(C)C)n3)ccc12 (stereo not given) | 50 (≈ 85.8 µM) | 12.5 (≈ 21.5 µM) | 12.5 (≈ 21.5 µM) | 100 (≈ 172 µM) | 19 | 18 | 21 | 24 | 50 (≈ 85.8 µM) | 50 (≈ 85.8 µM) | 12.5 (≈ 21.5 µM) | 25 (≈ 42.9 µM) | 12.5 (≈ 21.5 µM) | 19 | 21 | 23 | 15 | 21 | 24 | 12.5 (≈ 21.5 µM) | MIC (Staphylococcus aureus [21]): 12.5 µg/mL (≈ 21.5 µM); zone of inhibition at 100 µg/disc (Bacillus subtilis [22]): 20 mm; zone of inhibition at 100 µg/disc (Staphylococcus aureus [23]): 22 mm; MIC (Aspergillus fumigatus [24]): 12.5 µg/mL (≈ 21.5 µM) |
| Cc1cc(=O)oc2cc(Oc3nc(Nc4ccc(/N=C/c5cccc(F)c5)cc4)nc(N(C)C)n3)ccc12 | 50 (≈ 97.9 µM) | 100 (≈ 196 µM) | 25 (≈ 49 µM) | 50 (≈ 97.9 µM) | 13 | 17 | 14 | 18 | 100 (≈ 196 µM) | 50 (≈ 97.9 µM) | 50 (≈ 97.9 µM) | 100 (≈ 196 µM) | 50 (≈ 97.9 µM) | 19 | 14 | 18 | 16 | 17 | 20 | 50 (≈ 97.9 µM) | MIC (Staphylococcus aureus [21]): 100 µg/mL (≈ 196 µM); zone of inhibition at 100 µg/disc (Bacillus subtilis [22]): 16 mm; zone of inhibition at 100 µg/disc (Staphylococcus aureus [23]): 13 mm; MIC (Aspergillus fumigatus [24]): 100 µg/mL (≈ 196 µM) |
| Cc1cc(=O)oc2cc(Oc3nc(Nc4ccc(N5C(=O)CSC5c5ccc(F)cc5)cc4)nc(N(C)C)n3)ccc12 (stereo not given) | 50 (≈ 85.5 µM) | 25 (≈ 42.8 µM) | 50 (≈ 85.5 µM) | 100 (≈ 171 µM) | 24 | 22 | 18 | 25 | 12.5 (≈ 21.4 µM) | 25 (≈ 42.8 µM) | 12.5 (≈ 21.4 µM) | 25 (≈ 42.8 µM) | 50 (≈ 85.5 µM) | 18 | 20 | 17 | 15 | 22 | 17 | 25 (≈ 42.8 µM) | MIC (Staphylococcus aureus [21]): 25 µg/mL (≈ 42.8 µM); zone of inhibition at 100 µg/disc (Bacillus subtilis [22]): 20 mm; zone of inhibition at 100 µg/disc (Staphylococcus aureus [23]): 23 mm; MIC (Aspergillus fumigatus [24]): 50 µg/mL (≈ 85.5 µM) |
| Cc1cc(=O)oc2cc(Oc3nc(Nc4ccc(N5C(=O)CSC5c5ccccc5Br)cc4)nc(N(C)C)n3)ccc12 (stereo not given) | 100 (≈ 155 µM) | 50 (≈ 77.5 µM) | 100 (≈ 155 µM) | 100 (≈ 155 µM) | 21 | 20 | 23 | 19 | 25 (≈ 38.7 µM) | 50 (≈ 77.5 µM) | 100 (≈ 155 µM) | 50 (≈ 77.5 µM) | 100 (≈ 155 µM) | 10 | 16 | 12 | 13 | 20 | 17 | 50 (≈ 77.5 µM) | MIC (Staphylococcus aureus [21]): 50 µg/mL (≈ 77.5 µM); zone of inhibition at 100 µg/disc (Bacillus subtilis [22]): 20 mm; zone of inhibition at 100 µg/disc (Staphylococcus aureus [23]): 17 mm; MIC (Aspergillus fumigatus [24]): 25 µg/mL (≈ 38.7 µM) |
